Experimental data from patent US20160229835A1, “NOVEL PYRIDYLOXYACETYL TETRAHYDROISOQUINOLINE COMPOUNDS USEFUL AS NAMPT INHIBITORS” (ELI LILLY AND COMPANY, priority 2013, published 2016).

Key:
[1] = tested on: Calu-6 (lung cancer) cells; test: Cell Viability Assay, Calu-6; assay type: cell-based; details: Homo sapiens, 72 hours
Protocol: The purpose of this assay is to measure the ability of a compound to reduce viability of different cancer cells dependent on the NAMPT-mediated NAD^+ formation in vitro. HCC1937 (breast cancer) cells are cultured in RPMI-1640 supplemented with 10% FBS. Calu-6 (lung cancer) cells and MCF-7 (breast cancer) cells are cultured in Minimum Essential Medium (MEM) (Gibco11095) supplemented with 1 mM sodium pyruvate (Gibco 11360), 1% Non-Essential Amino Acids Solution (100×; Gibco 11140) and 10% FBS. NCI-H1155 (lung cancer) cells are cultured in Dulbecco's Modified Eagle Medium (DMEM) (Gibco 11965) with 10% FBS. […] Cell viability is analyzed by using an assay kit (CYTOTOX-GLO™ Cytotoxicity Assay kit, Promega) according to the manufacturer's instructions as follows. […] Luminescence is measured using a Wallac Victor3 V 1420 Multilabel Counter (Perkin Elmer), referred to as dead cell luminescence. […] After the plate is incubated at room temperature for 15 minutes, luminescence is measured using the plate reader, referred to as total luminescence. Viable cell luminescence (CPS) is calculated by subtracting the dead cell luminescence from the total luminescence Inhibition of cell viability is calculated based on the equation as follows:
Inhibition (%)=(CPSnegative−CPSsample)/(CPSnegative−CPSpositive)*100 where CPS is the luminescence of viable cells.

[2] = tested on: H1155 tumor model; test: Efficacy in Xenograft Tumor Models, NCI-H1155; assay type: in vivo; details: nude mice, 4-day-on and 3-day-off schedule for 17 days
Protocol: The purpose of this assay is to measure reduction in tumor volume in response to test compound administration. A2780 and NCI-H1155 (NSCLC) cells are grown as described above for IVTI studies. Cells are harvested and injected subcutaneously onto the rear flank of nude mice. When tumors are established (7-21 days after implant), animals are randomized and grouped into control and test groups (7 animals/group). The test compound is formulated in 20% of CAPTISOL® and 25 mM of phosphate buffer, pH 2. Test compound and vehicle (20% of CAPTISOL® and 25 mM of phosphate buffer, pH 2 without compound) are administered by oral gavage. Tumor response is determined by tumor volume measurement (caliper) performed twice a week during the course of treatment and reported as percent of tumor volume of each treatment group divided by tumor volume of the vehicle control group. […] For example, Example 1 in H1155 tumor model, when dosed at 10 mg/kg (twice a day (BID) on a 4-day-on and 3-day-off schedule for 17 days, a T/C of 5.5 (P value<0.001 based on T-test) is achieved; when dosed at 20 mg/kg on the same schedule, a T/C of −81.1 (P value<0.001 based on T-test) is achieved. Example 2 in H1155 tumor model, when dosed at 8 mg/kg (twice a day (BID) on a 4-day-on and 3-day-off schedule for 17 days, a T/C of 5.2 (P value<0.001 based on T-test) is achieved; when dosed at 16 mg/kg on the same schedule, a T/C of −82.7 (P value<0.001 based on T-test) is achieved. Example 1 in A2780 tumor model, when dosed at 10 mg/kg (twice a day (BID) on a 4-day-on and 3-day-off schedule for 17 days, a T/C of 41.7 (P value<0.007 based on T-test) is achieved; when dosed at 20 mg/kg on the same schedule, a T/C of 2.4 (P value<0.001 based on T-test) is achieved.

IC50 [1] [nM]	Structure (SMILES)	T/C (tumor volume of treatment group divided by vehicle control group) ([2]; 8 mg/kg BID oral) [%]	T/C (tumor volume of treatment group divided by vehicle control group) ([2]; 16 mg/kg BID oral) [%]	T/C (tumor volume of treatment group divided by vehicle control group) ([2]; 10 mg/kg BID oral) [%]	T/C (tumor volume of treatment group divided by vehicle control group) ([2]; 20 mg/kg BID oral) [%]
121 ± 29	COCCS(=O)(=O)Nc1ccc2c(c1)CCN(C(=O)COc1cccnc1)C2 [Example 2, 2-Methoxy-N-[2-[2-(3-pyridyloxy)acetyl]-3,4-dihydro-1H-isoquinolin-6-yl]ethanesulfonamide]	5.2	−82.7		
49 ± 8	CC(C)(O)CS(=O)(=O)Nc1ccc2c(c1)CCN(C(=O)COc1cccnc1)C2 [Example 1, 2-Hydroxy-2-methyl-N-[2-[2-(3-pyridyloxy)acetyl]-3,4-dihydro-1H-isoquinolin-6-yl]propane-1-sulfonamide]			5.5	−81.1
